pIC50: −log10 of the molar value. Values after ≈ are worked out from the molar mass of the structure shown.
Tests used:
[1] = Plasma protein binding in mouse at 1 uM incubated for 6 hrs by LC-MS/MS analysis; format: ADME, cell-free; settings: read-out: PPB (converted)
[2] = Stability in mouse plasma at 1 uM incubated for 6 hrs by LC-MS/MS analysis; format: ADME, cell-free; settings: read-out: Stability
[3] = tested on: Escherichia coli; assay: Antibacterial activity against Escherichia coli ATCC25922 assessed as reduction in bacterial growth measured after 18 to 24 hrs by CLSI protocol based method; format: functional; settings: time 18-24 hrs
[4] = tested on: Pseudomonas aeruginosa; assay: Antibacterial activity against Pseudomonas aeruginosa ATCC27853 assessed as reduction in bacterial growth measured after 18 to 24 hrs by CLSI protocol based method; format: functional; settings: time 18-24 hrs
[5] = tested on: Pseudomonas aeruginosa; assay: Antibacterial activity against Pseudomonas aeruginosa clinical isolate PAE22-1 assessed as reduction in bacterial growth measured after 18 to 24 hrs by CLSI protocol based method; format: functional; settings: time 18-24 hrs
[6] = tested on: Klebsiella pneumoniae; assay: Antibacterial activity against Klebsiella pneumoniae ATCC700603 assessed as reduction in bacterial growth measured after 18 to 24 hrs by CLSI protocol based method; format: functional; settings: time 18-24 hrs
[7] = tested on: Klebsiella pneumoniae; assay: Antibacterial activity against Klebsiella pneumoniae clinical isolate KPN+22-1 assessed as reduction in bacterial growth measured after 18 to 24 hrs by CLSI protocol based method; format: functional; settings: time 18-24 hrs
[8] = Metabolic stability in human liver microsomes assessed as half life at 1 uM preincubated for 5 mins followed by NADPH addition and measured after 5 to 60 mins by LC-MS analysis; format: ADME, Microsome; settings: microsomes, 1 µM, time 10-65 min
[9] = Metabolic stability in rat liver microsomes assessed as half life at 1 uM preincubated for 5 mins followed by NADPH addition and measured after 5 to 60 mins by LC-MS analysis; format: ADME, Microsome; settings: microsomes, 1 µM, time 10-65 min
[10] = Metabolic stability in mouse liver microsomes assessed as half life at 1 uM preincubated for 5 mins followed by NADPH addition and measured after 5 to 60 mins by LC-MS analysis; format: ADME, Microsome; settings: microsomes, 1 µM, time 10-65 min
[11] = Metabolic stability in rat liver microsomes assessed as intrinsic clearance at 1 uM preincubated for 5 mins followed by NADPH addition and measured after 5 to 60 mins by LC-MS analysis; format: ADME, Microsome; settings: microsomes, 1 µM, time 10-65 min
[12] = Metabolic stability in mouse liver microsomes assessed as intrinsic clearance at 1 uM preincubated for 5 mins followed by NADPH addition and measured after 5 to 60 mins by LC-MS analysis; format: ADME, Microsome; settings: microsomes, 1 µM, time 10-65 min
[13] = Intrinsic clearance in human; format: ADME; settings: read-out: CLH
[14] = Intrinsic clearance in rat; format: ADME; settings: read-out: CLH
[15] = Intrinsic clearance in mouse; format: ADME, organism-based; settings: read-out: CLH
[16] = tested on: HepG2; assay: Cytotoxicity against human HepG2 cells assessed as inhibition of cell growth measured after 48 hrs by MTT assay; format: functional, cell-based; settings: HepG2, 48 h
[17] = Plasma protein binding in human assessed as unbound fraction at 1 uM incubated for 6 hrs by LC-MS/MS analysis; format: ADME, cell-free
[18] = Plasma protein binding in human at 1 uM incubated for 6 hrs by LC-MS/MS analysis; format: ADME, cell-free; settings: read-out: PPB
[19] = Plasma protein binding in human assessed as drug recovery at 1 uM incubated for 6 hrs by LC-MS/MS analysis; format: ADME, cell-free; settings: read-out: Drug recovery
[20] = Stability in human plasma at 1 uM incubated for 6 hrs by LC-MS/MS analysis; format: ADME, cell-free; settings: read-out: Stability
[21] = Plasma protein binding in rat assessed as unbound fraction at 1 uM incubated for 6 hrs by LC-MS/MS analysis; format: ADME, cell-free
[22] = Plasma protein binding in rat at 1 uM incubated for 6 hrs by LC-MS/MS analysis; format: ADME, cell-free; settings: read-out: PPB (converted)
[23] = Plasma protein binding in rat assessed as drug recovery at 1 uM incubated for 6 hrs by LC-MS/MS analysis; format: ADME, cell-free; settings: read-out: Drug recovery
[24] = Stability in rat plasma at 1 uM incubated for 6 hrs by LC-MS/MS analysis; format: ADME, cell-free; settings: read-out: Stability
[25] = Plasma protein binding in mouse assessed as unbound fraction at 1 uM incubated for 6 hrs by LC-MS/MS analysis; format: ADME, cell-free
[26] = Plasma protein binding in mouse assessed as drug recovery at 1 uM incubated for 6 hrs by LC-MS/MS analysis; format: ADME, cell-free; settings: read-out: Drug recovery
[27] = Half life in male Sprague-Dawley rat at 10 mg/kg, IG measured upto 24 hrs by LC-MS analysis; format: ADME, organism-based; settings: in vivo, po
[28] = Tmax in male Sprague-Dawley rat at 10 mg/kg, IG measured upto 24 hrs by LC-MS analysis; format: ADME, organism-based; settings: in vivo, po
[29] = Cmax in male Sprague-Dawley rat at 10 mg/kg, IG measured upto 24 hrs by LC-MS analysis; format: ADME, organism-based; settings: in vivo, po
[30] = AUC (0 to t) in male Sprague-Dawley rat at 10 mg/kg, IG measured upto 24 hrs by LC-MS analysis; format: ADME, organism-based; settings: in vivo, po
[31] = MRT (0 to t) in male Sprague-Dawley rat at 10 mg/kg, IG measured upto 24 hrs by LC-MS analysis; format: ADME, organism-based; settings: in vivo, po
[32] = Oral bioavailability in male Sprague-Dawley rat at 10 mg/kg, IG measured upto 24 hrs by LC-MS analysis; format: ADME, organism-based; settings: in vivo
[33] = Half life in male Sprague-Dawley rat at 1 mg/kg, iv measured upto 24 hrs by LC-MS analysis; format: ADME, organism-based; settings: in vivo
[34] = AUC (0 to t) in male Sprague-Dawley rat at 1 mg/kg, iv measured upto 24 hrs by LC-MS analysis; format: ADME, organism-based; settings: in vivo
[35] = Clearance in male Sprague-Dawley rat at 1 mg/kg, iv measured upto 24 hrs by LC-MS analysis; format: ADME, organism-based; settings: in vivo
[36] = MRT (0 to t) in male Sprague-Dawley rat at 1 mg/kg, iv measured upto 24 hrs by LC-MS analysis; format: ADME, organism-based; settings: in vivo
[37] = Volume of distribution at steady state in male Sprague-Dawley rat at 1 mg/kg, iv measured upto 24 hrs by LC-MS analysis; format: ADME, organism-based; settings: in vivo, read-out: Vdss
[38] = target: T1, Cytochrome P450 1A2 (Homo sapiens, UniProt P05177); assay: Inhibition of CYP1A2 in human liver microsomes using alpha-naphthoflavone […] preincubated for 5 mins followed by substrate addition ande measured after 120 mins in presence of NADPH by LC-MS/MS analysis; format: ADME, Microsome
T1 sequence (P05177 whole entry): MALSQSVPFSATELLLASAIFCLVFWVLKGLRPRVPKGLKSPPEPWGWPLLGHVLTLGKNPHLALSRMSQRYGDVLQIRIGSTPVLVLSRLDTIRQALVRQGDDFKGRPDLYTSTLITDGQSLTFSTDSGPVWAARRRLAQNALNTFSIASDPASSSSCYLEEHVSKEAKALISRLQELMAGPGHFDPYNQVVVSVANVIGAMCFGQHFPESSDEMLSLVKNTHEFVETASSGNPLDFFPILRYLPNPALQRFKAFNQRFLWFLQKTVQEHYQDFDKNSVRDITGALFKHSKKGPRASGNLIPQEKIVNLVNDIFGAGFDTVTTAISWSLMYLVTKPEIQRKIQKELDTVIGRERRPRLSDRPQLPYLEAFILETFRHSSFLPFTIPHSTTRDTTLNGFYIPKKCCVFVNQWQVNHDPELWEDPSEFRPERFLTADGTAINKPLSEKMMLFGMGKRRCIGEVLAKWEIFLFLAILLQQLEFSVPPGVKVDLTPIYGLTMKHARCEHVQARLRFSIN

[39] = target: Cytochrome P450 2C9 (Homo sapiens, UniProt P11712); assay: Inhibition of CYP2C9 in human liver microsomes using sulfaphenazolum […] preincubated for 5 mins followed by substrate addition ande measured after 120 mins in presence of NADPH by LC-MS/MS analysis; format: ADME, Microsome
[40] = target: Cytochrome P450 2C19 (Homo sapiens, UniProt P33261); assay: Inhibition of CYP2C19 in human liver microsomes using nootkatone […] preincubated for 5 mins followed by substrate addition ande measured after 120 mins in presence of NADPH by LC-MS/MS analysis; format: ADME, Microsome
[41] = target: Cytochrome P450 2D6 (Homo sapiens, UniProt P10635); assay: Inhibition of CYP2D6 in human liver microsomes using quinidine […] preincubated for 5 mins followed by substrate addition ande measured after 120 mins in presence of NADPH by LC-MS/MS analysis; format: ADME, Microsome
[42] = target: Cytochrome P450 3A4 (Homo sapiens, UniProt P08684); assay: Inhibition of CYP3A4 in human liver microsomes using ketoconazole […] preincubated for 5 mins followed by substrate addition ande measured after 120 mins in presence of NADPH by LC-MS/MS analysis; format: ADME, Microsome
[43] = Solubility of the compound at pH 4.0 by LC-MS/MS analysis; format: physicochemical; settings: buffer
[44] = Solubility of the compound at pH 6.8 by LC-MS/MS analysis; format: physicochemical; settings: buffer
[45] = Solubility of the compound at pH 9.0 by LC-MS/MS analysis; format: physicochemical; settings: buffer
[46] = tested on: Escherichia coli; assay: Potency index, ratio of CHIR-090 MIC to test compound MIC for antibacterial activity against Escherichia coli ATCC25922 assessed as reduction in bacterial growth measured after 18 to 24 hrs by CLSI protocol based method; format: functional; settings: time 18-24 hrs

Sequence of Cytochrome P450 2C19 (P33261 whole entry): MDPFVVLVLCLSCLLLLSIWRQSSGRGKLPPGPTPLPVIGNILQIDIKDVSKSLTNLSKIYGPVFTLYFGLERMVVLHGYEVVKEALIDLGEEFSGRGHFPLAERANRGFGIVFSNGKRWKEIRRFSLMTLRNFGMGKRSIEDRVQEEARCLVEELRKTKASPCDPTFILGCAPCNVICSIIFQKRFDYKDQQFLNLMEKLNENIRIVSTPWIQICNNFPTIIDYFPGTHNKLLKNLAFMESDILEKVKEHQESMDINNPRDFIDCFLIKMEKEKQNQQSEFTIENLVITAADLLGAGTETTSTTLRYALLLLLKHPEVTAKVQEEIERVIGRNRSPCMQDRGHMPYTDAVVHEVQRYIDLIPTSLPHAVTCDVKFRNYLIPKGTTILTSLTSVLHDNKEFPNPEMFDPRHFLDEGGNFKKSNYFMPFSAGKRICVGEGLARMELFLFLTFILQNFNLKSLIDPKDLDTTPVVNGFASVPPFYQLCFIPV
Sequence of Cytochrome P450 2C9 (P11712 whole entry): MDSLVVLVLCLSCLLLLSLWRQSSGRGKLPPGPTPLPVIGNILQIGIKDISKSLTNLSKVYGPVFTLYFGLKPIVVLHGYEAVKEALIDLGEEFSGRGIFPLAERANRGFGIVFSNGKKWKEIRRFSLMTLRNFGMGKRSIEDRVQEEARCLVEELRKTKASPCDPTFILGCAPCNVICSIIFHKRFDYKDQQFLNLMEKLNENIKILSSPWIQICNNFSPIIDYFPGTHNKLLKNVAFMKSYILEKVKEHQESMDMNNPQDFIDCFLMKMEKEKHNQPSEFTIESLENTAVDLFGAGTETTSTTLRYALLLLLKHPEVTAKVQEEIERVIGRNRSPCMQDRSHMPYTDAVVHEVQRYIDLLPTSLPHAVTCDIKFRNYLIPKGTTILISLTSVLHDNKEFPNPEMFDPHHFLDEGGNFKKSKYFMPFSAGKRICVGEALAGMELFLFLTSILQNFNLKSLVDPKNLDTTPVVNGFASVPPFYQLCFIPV
Sequence of Cytochrome P450 2D6 (P10635 whole entry): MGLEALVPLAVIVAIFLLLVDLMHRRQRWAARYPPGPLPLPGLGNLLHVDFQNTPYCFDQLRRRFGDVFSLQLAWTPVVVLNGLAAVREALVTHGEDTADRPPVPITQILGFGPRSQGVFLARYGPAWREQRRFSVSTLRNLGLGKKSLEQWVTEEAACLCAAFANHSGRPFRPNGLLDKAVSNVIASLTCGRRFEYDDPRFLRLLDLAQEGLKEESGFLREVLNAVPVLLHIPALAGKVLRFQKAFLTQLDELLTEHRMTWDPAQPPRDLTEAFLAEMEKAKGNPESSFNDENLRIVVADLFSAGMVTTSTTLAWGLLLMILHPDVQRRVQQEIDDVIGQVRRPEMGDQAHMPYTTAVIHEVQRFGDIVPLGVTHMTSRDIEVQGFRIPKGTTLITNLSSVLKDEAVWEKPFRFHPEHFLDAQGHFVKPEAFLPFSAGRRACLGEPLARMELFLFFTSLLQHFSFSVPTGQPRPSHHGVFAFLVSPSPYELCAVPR
Sequence of Cytochrome P450 3A4 (P08684 whole entry): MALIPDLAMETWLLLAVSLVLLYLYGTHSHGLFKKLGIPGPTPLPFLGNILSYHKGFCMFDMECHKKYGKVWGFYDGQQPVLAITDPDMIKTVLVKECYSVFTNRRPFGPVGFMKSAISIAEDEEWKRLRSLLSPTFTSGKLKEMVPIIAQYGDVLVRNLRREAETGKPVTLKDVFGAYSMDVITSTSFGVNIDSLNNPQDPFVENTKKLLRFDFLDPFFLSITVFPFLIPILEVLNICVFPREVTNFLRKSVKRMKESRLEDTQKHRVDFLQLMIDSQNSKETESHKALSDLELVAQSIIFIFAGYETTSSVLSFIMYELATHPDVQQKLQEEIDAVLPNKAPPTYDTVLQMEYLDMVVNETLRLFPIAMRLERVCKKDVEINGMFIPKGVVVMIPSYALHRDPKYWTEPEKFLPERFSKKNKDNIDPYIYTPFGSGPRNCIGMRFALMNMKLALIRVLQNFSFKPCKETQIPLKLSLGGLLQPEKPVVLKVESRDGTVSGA

With `C[C@@H](O)[C@H](NC(=O)c1ccc(C#Cc2ccc(/C=N/N3CCCC3)cc2)cc1)C(=O)NO` the fraction unbound at 6 h, 1 µM [1] was 0.002, the remaining at 6 h, 1 µM [2] was 111% and the MIC [3] was 0.06 µg/mL (≈ 0.138 µM). For the same compound, the MIC [4] was over 64 µg/mL, the MIC [5] was 2 µg/mL (≈ 4.6 µM) and the MIC [6] was 8 µg/mL (≈ 18.4 µM). It also gave an MIC [7] of 0.25 µg/mL (≈ 0.575 µM), a t1/2 [8] of 5.62 h and a t1/2 [9] of 4.14 min. It also gave a t1/2 [10] of 3.91 min, a CLH [11] of 9.76 µL/min/mg and a CLH [12] of 17.6 µL/min/mg. The CLint scaled [13] was 165 mL/min/kg, the CLint scaled [14] was 8.59 mL/min/kg and the CLint scaled [15] was 33.8 mL/min/kg. It also gave a pIC50 [16] of under 4.52, a fraction unbound at 6 h, 1 µM [17] of 0.0013 and a fraction unbound at 6 h, 1 µM [18] of 0.001. For the same compound, the recovery at 6 h, 1 µM [19] was 103%, the remaining at 6 h, 1 µM [20] was 113% and the fraction unbound at 6 h, 1 µM [21] was 0.0016. For the same compound, the fraction unbound at 6 h, 1 µM [22] was 0.002, the recovery at 6 h, 1 µM [23] was 102% and the remaining at 6 h, 1 µM [24] was 109%. For the same compound, the fraction unbound at 6 h, 1 µM [25] was 0.00232, the recovery at 6 h, 1 µM [26] was 110% and the half-life [27] was 2.5 h. It also gave a Tmax [28] of 4 h, a Cmax [29] of 218 ng/mL and an AUC(0-t) at 24 h [30] of 1050 ng·h/mL. It also gave an MRT last at 24 h [31] of 3.41 h, a bioavailability [32] of 13.3% and a half-life [33] of 1.09 h. The AUC(0-t) at 24 h [34] was 791 ng·h/mL, the clearance [35] was 20.6 mL/min/kg and the MRT last at 24 h [36] was 1.31 h. It also gave a Vd [37] of 1.8 L/kg, a pIC50 [38] of under 4.52 and a pIC50 [39] of under 4.52. The pIC50 [40] was under 4.52, the pIC50 [41] was under 4.52 and the pIC50 [42] was under 4.52. The solubility [43] was 4.8 µM (≈ 2.09 µg/mL), the solubility [44] was 9.41 µM (≈ 4.09 µg/mL) and the solubility [45] was 101 µM (≈ 43.9 µg/mL).

Work on `C[C@@H](O)[C@H](NC(=O)c1ccc(C#Cc2ccc(/C=N/N3CCSCC3)cc2)cc1)C(=O)NO` yielded an MIC [3] of 0.25 µg/mL (≈ 0.536 µM), an MIC [4] of over 64 µg/mL and an MIC [5] of 8 µg/mL (≈ 17.1 µM). It also gave an MIC [6] of over 64 µg/mL, an MIC [7] of 1 µg/mL (≈ 2.14 µM) and a Ratio [46] of 2.
